Reference: PMC9655428, “N-Hydroxy-N-Propargylamide Derivatives of Ferulic Acid: Inhibitors of Cholinesterases and Monoamine Oxidases” (Molecules, 2022)
Entries after “also recorded” stand apart in the source; their conditions may differ.

What was measured:
hAChE = target: T1, hAChE (Homo sapiens, UniProt P22303); assay: Inhibition of hAChE (Ellman spectrophotometric assay); format: biochemical; details: for hAChE % @ 10 µM: inhibition at 10 µM; for IC50: seven concentrations 30–0.01 µM
T1 construct: purchased Sigma Aldrich
T1 sequence (P22303 32-614): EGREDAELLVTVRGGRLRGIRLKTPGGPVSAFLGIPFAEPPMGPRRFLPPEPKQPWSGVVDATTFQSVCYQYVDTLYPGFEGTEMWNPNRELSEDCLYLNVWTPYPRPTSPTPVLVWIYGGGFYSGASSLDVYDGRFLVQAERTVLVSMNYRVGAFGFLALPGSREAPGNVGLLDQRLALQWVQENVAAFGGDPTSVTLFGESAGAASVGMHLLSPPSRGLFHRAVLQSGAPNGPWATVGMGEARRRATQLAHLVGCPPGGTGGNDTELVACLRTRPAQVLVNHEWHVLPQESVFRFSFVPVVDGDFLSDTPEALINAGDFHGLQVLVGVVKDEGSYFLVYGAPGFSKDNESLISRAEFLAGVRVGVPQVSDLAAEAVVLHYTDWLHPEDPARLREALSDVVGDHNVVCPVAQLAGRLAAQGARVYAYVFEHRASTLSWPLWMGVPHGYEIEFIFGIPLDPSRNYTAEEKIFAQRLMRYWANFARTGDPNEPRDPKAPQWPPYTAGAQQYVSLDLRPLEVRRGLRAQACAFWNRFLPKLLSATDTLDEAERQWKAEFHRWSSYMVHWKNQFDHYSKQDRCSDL
Method: (§1) Inhibition assays were performed according to previously published protocols. […] Compound 3 is a hydroxamate in which the piperidine ring is attached to the C4 oxygen via an n-butyl linker, while compound 6 is a corresponding N-propargylhydroxamate.
(§2) Inhibition assays were performed according to previously published protocols. […] Briefly, the classical Ellman spectrophotometric assay (for ChEs) and fluorimetric detection of 4-hydroxyquinoline (for MAOs) were adapted to a plate reading procedure using 96-well microtiter plates (Greiner Bio-Frickenhausen, Frickenhausen, Germany). Readings were performed using the Infinite M1000 Pro plate reader (Tecan, Cernusco s.N., Cernusco sul Naviglio, MI, Italy), and statistical regression was performed using Prism software (GraphPad Prism version 5.00 for Windows, GraphPad Software, San Diego, CA, USA).

hMAO-B = target: T2, hMAO-B (Homo sapiens, UniProt P27338); assay: Inhibition of hMAO-B (fluorimetric detection of 4-hydroxyquinoline); format: biochemical; details: ni = no inhibition
T2 construct: purchased Sigma Aldrich
T2 sequence (P27338 1-520): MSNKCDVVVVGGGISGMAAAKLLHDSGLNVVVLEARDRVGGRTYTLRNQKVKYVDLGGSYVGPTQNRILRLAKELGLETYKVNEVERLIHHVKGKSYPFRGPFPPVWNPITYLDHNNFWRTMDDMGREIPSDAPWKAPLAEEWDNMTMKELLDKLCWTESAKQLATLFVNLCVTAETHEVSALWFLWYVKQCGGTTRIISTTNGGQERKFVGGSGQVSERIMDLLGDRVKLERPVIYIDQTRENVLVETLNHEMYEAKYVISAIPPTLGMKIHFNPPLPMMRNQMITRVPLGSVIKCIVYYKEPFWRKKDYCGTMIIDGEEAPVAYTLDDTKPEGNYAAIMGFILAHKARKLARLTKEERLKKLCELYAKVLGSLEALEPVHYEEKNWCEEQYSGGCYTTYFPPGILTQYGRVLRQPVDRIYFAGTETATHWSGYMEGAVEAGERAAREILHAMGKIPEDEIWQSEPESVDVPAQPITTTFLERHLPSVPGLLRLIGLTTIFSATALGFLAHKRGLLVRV
Method: as §1, §2

hMAO-A = target: T3, hMAO-A (Homo sapiens, UniProt P21397); assay: Inhibition of hMAO-A (fluorimetric detection of 4-hydroxyquinoline); format: biochemical; details: ni = no inhibition
T3 construct: purchased Sigma Aldrich
T3 sequence (P21397 1-527): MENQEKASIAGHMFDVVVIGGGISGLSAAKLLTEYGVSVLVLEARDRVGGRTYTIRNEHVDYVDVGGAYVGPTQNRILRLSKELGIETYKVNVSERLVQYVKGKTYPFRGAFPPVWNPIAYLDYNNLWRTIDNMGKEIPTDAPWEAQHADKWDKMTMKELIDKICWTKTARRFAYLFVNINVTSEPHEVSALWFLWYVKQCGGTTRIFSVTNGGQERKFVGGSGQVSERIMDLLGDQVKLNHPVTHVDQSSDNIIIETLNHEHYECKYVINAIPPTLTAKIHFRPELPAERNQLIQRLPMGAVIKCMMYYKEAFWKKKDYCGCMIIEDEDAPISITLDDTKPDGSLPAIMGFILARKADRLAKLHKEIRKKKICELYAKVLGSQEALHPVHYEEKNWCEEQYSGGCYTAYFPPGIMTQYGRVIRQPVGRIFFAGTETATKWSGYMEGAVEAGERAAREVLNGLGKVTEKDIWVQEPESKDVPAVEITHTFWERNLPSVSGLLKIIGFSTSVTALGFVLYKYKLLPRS
Method: as §1, §2

hBChE = target: T4, hBChE (Homo sapiens, UniProt P06276); assay: Inhibition of hBChE (Ellman spectrophotometric assay); format: biochemical; details: ni = no inhibition; for hBChE % @ 10 µM: inhibition at 10 µM
T4 construct: purchased Sigma Aldrich
T4 sequence (P06276 29-602): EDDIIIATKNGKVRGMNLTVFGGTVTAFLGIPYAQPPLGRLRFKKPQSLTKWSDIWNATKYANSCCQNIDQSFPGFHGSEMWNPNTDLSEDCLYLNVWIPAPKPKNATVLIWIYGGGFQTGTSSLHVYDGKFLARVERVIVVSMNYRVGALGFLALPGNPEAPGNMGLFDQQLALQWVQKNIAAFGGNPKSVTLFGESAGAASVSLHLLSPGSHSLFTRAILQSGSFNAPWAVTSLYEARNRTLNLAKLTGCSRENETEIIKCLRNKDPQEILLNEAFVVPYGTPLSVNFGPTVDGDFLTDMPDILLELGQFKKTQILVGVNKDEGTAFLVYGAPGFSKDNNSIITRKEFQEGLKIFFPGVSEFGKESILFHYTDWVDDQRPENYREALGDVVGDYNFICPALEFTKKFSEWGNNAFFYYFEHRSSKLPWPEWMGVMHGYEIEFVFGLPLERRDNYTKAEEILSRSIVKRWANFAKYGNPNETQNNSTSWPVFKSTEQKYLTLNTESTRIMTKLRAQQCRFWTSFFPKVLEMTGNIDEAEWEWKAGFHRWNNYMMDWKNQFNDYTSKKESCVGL
Method: as §1, §2

[1] = Metal chelation, UV-Vis absorption assay, Ca2+; format: physicochemical; details: 30 µM compound, equimolar CaCl2, 30 min, pH 7.4
Method: (§3) Another therapeutic possibility currently under investigation is metal chelation, which could affect not only the redox cycling of metal ions but also Aβ- and tau-pathology. Metal chelation of compound 4 was investigated using a UV-Vis absorption assay, in which the compound was incubated with equimolar concentrations of the major bivalent biometals (i.e., Ca^2+, Mg^2+, Zn^2+, Cu^2+, Fe^2+, Mn^2+, Co^2+, and Ni^2+) (Figure 4).
(§4) Metal chelation was determined in assay buffer (20 mM Na-HEPES, 150 mM NaCl, pH 7.4) according to the procedure described previously. Stock solutions of the metals at 100 mM concentrations were prepared in MilliQ water (Milli-Q advantage A10 Ultrapure Water Purification System, Millipore, KGaA, Darmstadt, Germany). The FeCl2 stock solution (100 mM) was prepared in the presence of ascorbic acid (1 mM). Compound 4 at a concentration of 30 μM was incubated for 30 min with equimolar concentrations of CuCl2, ZnCl2, MgCl2, CaCl2, MnCl2, FeCl2, CoCl2, and NiCl2. Absorbance spectra were measured on a Synergy™ H4 reader (BioTek Instruments, Inc., Winooski, VT, USA).

[2] = Metal chelation, UV-Vis absorption assay, Cu2+; format: physicochemical; details: 30 µM compound, equimolar CuCl2, 30 min, pH 7.4
Method: as §3, §4

[3] = DPPH radical-scavenging assay; details: DPPH 70 µM in MeOH, 1.5 h incubation
Description: In addition, antioxidants or natural products containing polyphenols are also being investigated in clinical trials involving AD patients. Therefore, the antioxidant properties of compound 4 were investigated using the 2,2-diphenyl-1-picrylhydrazyl radical (DPPH) scavenging assay, a simple and reliable in vitro assay. […] Hydroxamic acids are considered to be potent antioxidants, and, in combination with cholinesterase inhibitory activity, could not only alleviate symptoms but also have disease-modifying effects.
Compound 4 at concentrations of 3.125–50 µM was incubated for 1.5 h with 2,2-diphenyl-1-picrylhydrazyl radical (DPPH, 70 µM) in MeOH, and absorbance was measured (λ = 517 nm) using a Synergy™ H4 reader (BioTek Instruments, Inc., Winooski, VT, USA). The experiment was performed in three technical replicates, and the blank sample (compound 4 without DPPH) was subtracted. The results are expressed as the percentage of DPPH free radicals (DPPH free radicals (%) = ((A0 − A1)/A0) × 100, where A0 is the absorbance of DPPH in MeOH and A1 is the absorbance of DPPH in the presence of compound 4).

[4] = Metal chelation, UV-Vis absorption assay, Fe2+; format: physicochemical; details: 30 µM compound, equimolar FeCl2, 30 min, pH 7.4
Method: as §3, §4

| SMILES | hAChE % @ 10 µM (hAChE) | inhibition at 10 µM (hMAO-B) | inhibition at 10 µM (hMAO-A) | hBChE % @ 10 µM (hBChE) | IC50 (hAChE) | further results |
| --- | --- | --- | --- | --- | --- | --- |
| COc1cc(/C=C/C(=O)NO)ccc1OCCN1CCCCC1 [Compound 1, (E)-N-Hydroxy-3-(3-methoxy-4-(2-(piperidin-1-yl)ethoxy)phenyl)acrylamide] | 51 ± 2% | 26 ± 5% | 20 ± 5% |  |  | inhibition at 10 µM (hBChE): 18 ± 4% |
| COc1cc(/C=C/C(=O)NO)ccc1OCCCN1CCCCC1 [Compound 2, (E)-N-Hydroxy-3-(3-methoxy-4-(3-(piperidin-1-yl)propoxy)phenyl)acrylamide] | 42 ± 2% | 21 ± 4% | 15 ± 5% | ni |  |  |
| COc1cc(/C=C/C(=O)NO)ccc1OCCCCN1CCCCC1 [Compound 3, (E)-N-Hydroxy-3-(3-methoxy-4-(4-(piperidin-1-yl)butoxy)phenyl)acrylamide] |  | 11 ± 4% | 5 ± 3% | ni | 6.58 ± 0.27 µM |  |
| C#CCN(O)C(=O)/C=C/c1ccc(OCCN2CCCCC2)c(OC)c1 [Compound 4, (E)-N-Hydroxy-3-(3-methoxy-4-(2-(piperidin-1-yl)ethoxy)phenyl)-N-(prop-2-yn-1-yl)acrylamide] |  | 20 ± 4% | 26 ± 5% |  | 2.63 ± 0.57 µM | Ca^2+ chelation (spectral change) [1]: does not appear to be due to the formation of a Ca^2+/4 complex; Cu^2+ chelation (spectral change) [2]: efficiently bound Cu^2+ ions; also recorded: chelated divalent copper ions; EC50 [3]: 40.9 ± 0.5 µM; Fe^2+ chelation (spectral change) [4]: ferrous ions were also bound; inhibition at 10 µM (hBChE): 38 ± 2% |
| C#CCN(O)C(=O)/C=C/c1ccc(OCCCN2CCCCC2)c(OC)c1 [Compound 5, (E)-N-Hydroxy-3-(3-methoxy-4-(3-(piperidin-1-yl)propoxy)phenyl)-N-(prop-2-yn-1-yl)acrylamide] | 41 ± 4% | 16 ± 5% | 23 ± 6% | ni |  |  |
| C#CCN(O)C(=O)/C=C/c1ccc(OCCCCN2CCCCC2)c(OC)c1 [Compound 6, (E)-N-Hydroxy-3-(3-methoxy-4-(4-(piperidin-1-yl)butoxy)phenyl)-N-(prop-2-yn-1-yl)acrylamide] |  |  |  | ni | 7.2 ± 0.54 µM | hMAO-B % @ 10 µM (hMAO-B; inhibition at 10 µM): ni; hMAO-A % @ 10 µM (hMAO-A; inhibition at 10 µM): ni |
| O=C(NO)c1ccccc1 [Compound 15, N-Hydroxybenzamide] | 58 ± 5% | 16 ± 3% | 11 ± 3% | ni |  |  |
| C#CCN(O)C(=O)c1ccccc1 [Compound 16, N-Hydroxy-N-(prop-2-yn-1-yl)benzamide] | 40 ± 4% | 16 ± 5% | 14 ± 4% | ni |  |  |
| Cc1c(C)c2c(c(C)c1O)CCC(C)(C(=O)O)O2 (stereo not shown) [Trolox, reference compound] |  |  |  |  |  | EC50 [3]: 12.4 ± 0.3 µM |
